Where two headings read alike, the source gives them in different places.
Tests used:
Format in all cases: in vivo
Avena fatua (AVEFA) = assay: greenhouse pre-emergence herbicidal activity; conditions: 125 g ai/ha, read-out: observed % activity
Description: (§1) For the pre-emergence treatment, directly after sowing the active compounds, which had been suspended or emulsified in water, were applied by means of finely distributed nozzles. The containers were irrigated gently to promote germination and growth and subsequently covered with transparent plastic hoods until plant had rooted. This cover caused uniform germination of the tests plants, unless this was adversely affected by active compounds.
(§2) The respective herbicides A and/or safener were formulated as 10% by weight strength suspension concentrate and introduced to the spray liquor with the amount of solvent system used for applying the active compound. Herbicide B and/or safener were used as commercially available formulations and introduced to the spray liquor with the amount of solvent system used for applying the active compound. In the examples, the solvent used was water.
(§3) Pendimethalin was used as a commercial aqueous suspension concentrate having an active ingredient concentration of 400 g/l.
(§4) The test period extended over 21 days. During this time, the plants were tended, and their response to the treatments with active compound was evaluated.
(§5) The evaluation for the damage caused by the chemical compositions was carried out using a scale from 0 to 100%, compared to the untreated control plants. Here, 0 means no damage and 100 means complete destruction of the plants.
(§6) The value E, which is to be expected if the activity of the individual compounds is just additive, was calculated using the method of S. R. Colby (1967) “Calculating synergistic and antagonistic responses of herbicide combinations”, Weeds 15, p. 22 ff.
(§7) where • X=effect in percent using herbicide A at an application rate a; • Y=effect in percent using herbicide B at an application rate b; • E=expected effect (in %) of A+B at application rates a+b.
(§8) If the value observed in this manner is higher than the value E calculated according to Colby, a synergistic effect is present.

Bromus inermis (BROIN) = assay: greenhouse pre-emergence herbicidal activity; conditions: read-out: observed % activity; for inhibition at 125 g/ha: 125 g ai/ha; for inhibition at 250 g/ha: 250 g ai/ha
Description: as §1, §2, §3, §4, §5, §6, §7, §8

[1] = test system: Capsella bursa-pastoris (CAPBP); assay: greenhouse pre-emergence herbicidal activity; conditions: 500 g ai/ha, read-out: observed % activity
Description: as §1, §2, §3, §4, §5, §6, §7, §8

Galium aparine (GALAP) = assay: greenhouse pre-emergence herbicidal activity; conditions: read-out: observed % activity; for inhibition at 125 g/ha: 125 g ai/ha; for inhibition at 250 g/ha: 250 g ai/ha
Description: as §1, §2, §3, §4, §5, §6, §7, §8

[2] = test system: Phalaris canariensis (PHACA); assay: greenhouse pre-emergence herbicidal activity; conditions: read-out: observed % activity; for inhibition at 125 g/ha: 125 g ai/ha; for inhibition at 250 g/ha: 250 g ai/ha
Description: as §1, §2, §3, §4, §5, §6, §7, §8

Thlaspi arvense (THLAR) [3] = assay: greenhouse pre-emergence herbicidal activity; conditions: 125 g ai/ha, read-out: observed % activity
Description: as §1, §2, §3, §4, §5, §6, §7, §8

Veronica persica (VERPE) = assay: greenhouse pre-emergence herbicidal activity; conditions: read-out: observed % activity; for inhibition at 250 g/ha: 250 g ai/ha; for inhibition at 500 g/ha: 500 g ai/ha; for inhibition at 1000 g/ha: 1000 g ai/ha
Description: as §1, §2, §3, §4, §5, §6, §7, §8

[4] = test system: Alopecurus myosuroides (ALOMY); assay: greenhouse post-emergence herbicidal activity; conditions: 250 g ai/ha; for inhibition at 250 g/ha: Alopecurus myosuroides, read-out: observed % activity
Description: (§9) For the post-emergence treatment, the test plants were first grown to a height of 3 to 20 cm, depending on the plant habit, and only then treated. Here, the herbicidal compositions were suspended or emulsified in water as distribution medium and sprayed using finely distributing nozzles.
as §2, §3, §4, §5, §6, §7, §8

[5] = test system: Amaranthus retroflexus (AMARE); assay: greenhouse post-emergence herbicidal activity; conditions: 500 g ai/ha, 20 DAT
Description: as §9, §2, §3, §4, §5, §6, §7, §8

[6] = test system: Apera spica-venti (APESV); assay: greenhouse post-emergence herbicidal activity; conditions: 500 g ai/ha, 20 DAT
Description: as §9, §2, §3, §4, §5, §6, §7, §8

[7] = test system: Capsella bursa-pastoris (CAPBP); assay: greenhouse post-emergence herbicidal activity; conditions: 1000 g ai/ha, 20 DAT
Description: as §9, §2, §3, §4, §5, §6, §7, §8

Lamium purpureum (LAMPU) = assay: greenhouse post-emergence herbicidal activity; conditions: 500 g ai/ha, 20 DAT
Description: as §9, §2, §3, §4, §5, §6, §7, §8

[8] = test system: Matricaria inermis (MATIN); assay: greenhouse post-emergence herbicidal activity; conditions: 250 g ai/ha, read-out: observed % activity
Description: as §9, §2, §3, §4, §5, §6, §7, §8

Stellaria media (STEME) = assay: greenhouse post-emergence herbicidal activity; conditions: 20 DAT
Description: as §9, §2, §3, §4, §5, §6, §7, §8

Thlaspi arvense (THLAR) [9] = assay: greenhouse post-emergence herbicidal activity; conditions: for inhibition at 250 g/ha: Thlaspi arvense, read-out: observed % activity
Description: as §9, §2, §3, §4, §5, §6, §7, §8

Viola arvensis (VIOAR) = assay: greenhouse post-emergence herbicidal activity; conditions: 500 g ai/ha, 20 DAT
Description: as §9, §2, §3, §4, §5, §6, §7, §8

CCC(CC)Nc1c([N+](=O)[O-])cc(C)c(C)c1[N+](=O)[O-] [pendimethalin]
inhibition at 125 g/ha (Avena fatua (AVEFA); 192 h, 8 DAT): 0% | inhibition at 125 g/ha (Avena fatua (AVEFA); 480 h, 20 DAT): 0% | inhibition at 125 g/ha (Bromus inermis (BROIN); 192 h, 8 DAT): 20% | inhibition at 250 g/ha (Bromus inermis (BROIN); 192 h, 8 DAT): 20% | inhibition at 125 g/ha (Bromus inermis (BROIN); 480 h, 20 DAT): 0% | inhibition at 250 g/ha (Bromus inermis (BROIN); 480 h, 20 DAT): 0% | inhibition at 500 g/ha ([1]; 192 h, 8 DAT): 50% | inhibition at 500 g/ha ([1]; 480 h, 20 DAT): 85% | inhibition at 125 g/ha (Galium aparine (GALAP); 192 h, 8 DAT): 0% | inhibition at 250 g/ha (Galium aparine (GALAP); 192 h, 8 DAT): 0% | inhibition at 125 g/ha (Galium aparine (GALAP); 480 h, 20 DAT): 0% | inhibition at 250 g/ha (Galium aparine (GALAP); 480 h, 20 DAT): 0% | inhibition at 125 g/ha ([2]; 192 h, 8 DAT): 0% | inhibition at 250 g/ha ([2]; 192 h, 8 DAT): 30% | inhibition at 125 g/ha ([2]; 480 h, 20 DAT): 0% | inhibition at 250 g/ha ([2]; 480 h, 20 DAT): 0% | inhibition at 125 g/ha (Thlaspi arvense (THLAR) [3]; 192 h, 8 DAT): 0% | inhibition at 125 g/ha (Thlaspi arvense (THLAR) [3]; 480 h, 20 DAT): 20% | inhibition at 250 g/ha (Veronica persica (VERPE); 192 h, 8 DAT): 65% | inhibition at 500 g/ha (Veronica persica (VERPE); 192 h, 8 DAT): 65% | inhibition at 1000 g/ha (Veronica persica (VERPE); 192 h, 8 DAT): 70% | inhibition at 250 g/ha (Veronica persica (VERPE); 480 h, 20 DAT): 85% | inhibition at 500 g/ha (Veronica persica (VERPE); 480 h, 20 DAT): 85% | inhibition at 1000 g/ha (Veronica persica (VERPE); 480 h, 20 DAT): 90% | observed activity in % destruction 20 days after treatment ([4]; 20 DAT): 45% | inhibition at 250 g/ha ([4]; 168 h, 7 DAT): 35% | inhibition at 250 g/ha ([4]; 480 h, 20 DAT): 45% | observed activity in % destruction 20 days after treatment [5]: 80% | observed activity in % destruction 20 days after treatment [6]: 10% | observed activity in % destruction 20 days after treatment [7]: 95% | observed activity in % destruction 20 days after treatment (Lamium purpureum (LAMPU)): 90% | inhibition at 250 g/ha ([8]; 168 h, 7 DAT): 0% | inhibition at 250 g/ha ([8]; 480 h, 20 DAT): 0% | observed activity in % destruction 20 days after treatment (Stellaria media (STEME); 250 g ai/ha): 85% | observed activity in % destruction 20 days after treatment (Stellaria media (STEME); 1000 g ai/ha): 90% | observed activity in % destruction 20 days after treatment (Thlaspi arvense (THLAR) [9]; 250 g ai/ha, 20 DAT): 80% | observed activity in % destruction 20 days after treatment (Thlaspi arvense (THLAR) [9]; 1000 g ai/ha, 20 DAT): 90% | inhibition at 250 g/ha (Thlaspi arvense (THLAR) [9]; 168 h, 250 g ai/ha, 7 DAT): 55% | inhibition at 250 g/ha (Thlaspi arvense (THLAR) [9]; 480 h, 250 g ai/ha, 20 DAT): 80% | observed activity in % destruction 20 days after treatment (Viola arvensis (VIOAR)): 85%
